According to patent USRE48335E1, “Polymyxin derivatives as antimicrobial compounds” (priority 2014, dated 2020):
In brackets after ≈: the same amount, converted by molar mass. Positions of bridges follow the written chain, without caps; N, C: chain ends. Non-standard residues stand in square brackets, D forms with d. Residues, ends and D or L forms follow the SMILES beside them. *: point of attachment. Benzoyl(4-CF3) = O=C(c1ccc(C(F)(F)F)cc1)*; X7 = O=C(c1cc(F)cc(C(F)(F)F)c1)*; X8 = O=C(c1ccc(C(F)(F)F)cc1Cl)*; X5 = Cc1cc(C(=O)*)ccc1Cl; Dab = NCC[C@H](N)C(=O)O; Abu = CC[C@H](N)C(=O)O; Dap = NC[C@H](N)C(=O)O

Legend:
[1] = test system: K. pneumoniae FADDI-KP032; assay: In vivo efficacy in mouse blood infection model (neutropenic Swiss mice); settings: compound, free base 4 mg/kg intravenously 2 h after inoculation, blood at 4 h
In short: (§1)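 Neutropenic Swiss mice (cyclophosphamide 150 mg/kg day −4, 100 mg/kg day −1, i.p.) infected i.v. with early log-phase bacteria; 4 mg/kg free base i.v. given 2 h post-inoculation. Blood CFU by cardiac puncture 4 h post-dose; Δlog10 CFU/mL treated versus saline controls.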

A. baumannii ATCC 19606 = assay: as above; settings: compound, free base 4 mg/kg intravenously 2 h after inoculation, blood at 4 h
In short: as §1

P. aeruginosa ATCC 27853 = assay: as above; settings: compound, free base 4 mg/kg intravenously 2 h after inoculation, blood at 4 h
In short: as §1

Pseudomonas aeruginosa = test system: Pseudomonas aeruginosa
In short: (§2)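 Read-out is the MIC, obtained by broth microdilution under CLSI guidance. Lipopeptides (TFA salt form) were diluted in cation-adjusted Mueller-Hinton broth, with polymyxin B sulphate run alongside as control.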

Klebsiella pneumoniae = test system: Klebsiella pneumoniae
In short: as §2

Acinetobacter baumannii = test system: Acinetobacter baumannii
In short: as §2

Enterobacter cloacae = test system: Enterobacter cloacae
In short: as §2

| SMILES | Δ log (Treated-Control at 4 h) [1] [log10 CFU/mL] | Δ log (Treated-Control at 4 h) (A. baumannii ATCC 19606) [log10 CFU/mL] | Δ log (Treated-Control at 4 h) (P. aeruginosa ATCC 27853) [log10 CFU/mL] | MIC (Pseudomonas aeruginosa) [µg/mL] | Minimum inhibitory concentration, Pa ATCC 27853 (Pseudomonas aeruginosa) [µg/mL] | Minimum inhibitory concentration, Pa FADDI-PA022 (Pseudomonas aeruginosa) [µg/mL] | Minimum inhibitory concentration, Pa FADDI-PA025 (Pseudomonas aeruginosa) [µg/mL] | MIC (Klebsiella pneumoniae) [µg/mL] | MIC (Acinetobacter baumannii) [µg/mL] | Minimum inhibitory concentration, Ab A ATCC 17978 (Acinetobacter baumannii) [µg/mL] | Minimum inhibitory concentration, Ab ATCC 19606 (Acinetobacter baumannii) [µg/mL] | Minimum inhibitory concentration, Ab FADDI-AB034 (Acinetobacter baumannii) [µg/mL] | Minimum inhibitory concentration, Ec FADDI-EC001 (Enterobacter cloacae) [µg/mL] | Minimum inhibitory concentration, Ec FADDI-EC003 (Enterobacter cloacae) [µg/mL] | Minimum inhibitory concentration, Ec FADDI-EC006 (Enterobacter cloacae) [µg/mL] |
| --- | --- | --- | --- | --- | --- | --- | --- | --- | --- | --- | --- | --- | --- | --- | --- |
| CC[C@@H]1NC(=O)[C@@H](CC(C)C)NC(=O)[C@H](CCN)NC(=O)[C@@H](NC(=O)[C@H](CN)NC(=O)[C@@H](NC(=O)[C@H](CCN)NC(=O)c2ccc(C(F)(F)F)cc2)[C@@H](C)O)CCNC(=O)[C@H]([C@@H](C)O)NC(=O)[C@H](CCN)NC(=O)[C@H](CCN)NC1=O [Compound 74] ({Benzoyl(4-CF3)}-[Dab]T[Dap][Dab][Dab][dL][Abu][Dab][Dab]T; lactam 4-C) | −2.94 | −2.34 | −3.10 | 0.5 (≈ 0.431 µM) | 0.5 (≈ 0.431 µM) | 0.5 (≈ 0.431 µM) | 2 (≈ 1.73 µM) | 0.25 (≈ 0.216 µM) | 0.5 (≈ 0.431 µM) | 0.5 (≈ 0.431 µM) | 0.5 (≈ 0.431 µM) | 1 (≈ 0.863 µM) | <0.125 | 0.25 (≈ 0.216 µM) | 2 (≈ 1.73 µM) |
| CC[C@@H]1NC(=O)[C@@H](CC(C)C)NC(=O)[C@H](CCN)NC(=O)[C@@H](NC(=O)[C@H](CN)NC(=O)[C@@H](NC(=O)[C@H](CCN)NC(=O)c2ccc(Cl)c(C)c2)[C@@H](C)O)CCNC(=O)[C@H]([C@@H](C)O)NC(=O)[C@H](CCN)NC(=O)[C@H](CCN)NC1=O [Compound 104] (X5-[Dab]T[Dap][Dab][Dab][dL][Abu][Dab][Dab]T; lactam 4-C) | −3.23 | −1.35 | −3.08 | 0.5 (≈ 0.439 µM) | 0.5 (≈ 0.439 µM) | 0.5 (≈ 0.439 µM) | 2 (≈ 1.75 µM) | 1 (≈ 0.877 µM) | 1 (≈ 0.877 µM) | 0.5 (≈ 0.439 µM) | 1 (≈ 0.877 µM) | 0.25 (≈ 0.219 µM) | 0.5 (≈ 0.439 µM) | 0.25 (≈ 0.219 µM) | 0.5 (≈ 0.439 µM) |
| CC[C@@H]1NC(=O)[C@@H](CC(C)C)NC(=O)[C@H](CCN)NC(=O)[C@@H](NC(=O)[C@H](CN)NC(=O)[C@@H](NC(=O)[C@H](CCN)NC(=O)c2cc(F)cc(C(F)(F)F)c2)[C@@H](C)O)CCNC(=O)[C@H]([C@@H](C)O)NC(=O)[C@H](CCN)NC(=O)[C@H](CCN)NC1=O [Compound 108] (X7-[Dab]T[Dap][Dab][Dab][dL][Abu][Dab][Dab]T; lactam 4-C) | −2.84 | −1.82 | −2.32 | 0.5 (≈ 0.425 µM) | 0.5 (≈ 0.425 µM) | 0.5 (≈ 0.425 µM) | 2 (≈ 1.7 µM) | 0.25 (≈ 0.212 µM) | 0.5 (≈ 0.425 µM) | 0.5 (≈ 0.425 µM) | 0.5 (≈ 0.425 µM) | 0.5 (≈ 0.425 µM) | 1 (≈ 0.849 µM) | 0.5 (≈ 0.425 µM) | 0.5 (≈ 0.425 µM) |
| CC[C@@H]1NC(=O)[C@@H](CC(C)C)NC(=O)[C@H](CCN)NC(=O)[C@@H](NC(=O)[C@H](CN)NC(=O)[C@@H](NC(=O)[C@H](CCN)NC(=O)c2ccc(C(F)(F)F)cc2Cl)[C@@H](C)O)CCNC(=O)[C@H]([C@@H](C)O)NC(=O)[C@H](CCN)NC(=O)[C@H](CCN)NC1=O [Compound 109] (X8-[Dab]T[Dap][Dab][Dab][dL][Abu][Dab][Dab]T; lactam 4-C) | −3.47 | −1.54 | −2.68 | 0.5 (≈ 0.419 µM) | 0.5 (≈ 0.419 µM) | 0.5 (≈ 0.419 µM) | 2 (≈ 1.68 µM) | 0.25 (≈ 0.209 µM) | 0.25 (≈ 0.209 µM) | 1 (≈ 0.838 µM) | 0.25 (≈ 0.209 µM) | 1 (≈ 0.838 µM) | 1 (≈ 0.838 µM) | <0.125 | 0.25 (≈ 0.209 µM) |
